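Method: 48-hour compound exposure of cells in 96-well plates, five concentrations, linear interpolation of endpoints. TGI denotes the concentration required for complete inhibition of growth.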
Legend:
Assay in all cases: NCI tumour cell line growth inhibition, 48 h
[1] = system: KM20L2 colon
[2] = system: XF 498 CNS
[3] = system: SNB-78 CNS
[4] = system: LXFL 529 NSCLC
[5] = system: M19-MEL melanoma
[6] = system: DMS 273 small cell lung
[7] = system: DLD-1 colon
[8] = system: NCI-H23 lung
[9] = system: HOP-18 NSCLC
[10] = system: SF-539 CNS
[11] = system: UACC-257 melanoma
[12] = system: DMS 114 small cell lung
[13] = system: NCI/ADR-RES ovarian
[14] = system: HS 578T breast
[15] = system: P388 leukemia

SMILES	TGI [1] [µM]	TGI [2] [µM]	TGI [3] [µM]	TGI [4] [µM]	TGI [5] [µM]	TGI [6] [µM]	TGI [7] [µM]	TGI [8] [µM]	TGI [9] [µM]	TGI [10] [µM]	TGI [11] [µM]	TGI [12] [µM]	TGI [13] [µM]	TGI [14] [µM]	TGI [15] [µM]
C/C(=C1/CCCC2(N=NCC2c2ccccc2)C1=O)c1ccccc1 (stereo not given)	> 100	49.2	90.2	65.1	65	33.3	> 100	67.5	> 100	> 100	52.7	33.2			
CCOC(=O)C(N)CSC(=O)NC (stereo not given)	507	289			157	375	474	469	686	231	535	147	362	782	102
Cc1ccc(C2CC(c3ccco3)=NN2c2ccccc2)o1 (stereo not given)	> 100	> 100	> 100	> 100	> 100	> 100		> 100		> 100		> 100			
CCOC(=O)C(N=Nc1ccc(S(N)(=O)=O)cc1)C(C)=O (stereo not given)	> 100	> 100	> 100	> 100	> 100	> 100	> 100	> 100	> 100	> 100	> 100	> 100			
CCN1CCN(c2ccc(Nc3ccnc4ccc5nn(C)nc5c34)cc2)CC1	27.4	26.9	33.8	23.8	29.8		28.3	29.4		27.2	30.7	22.6			
COC(=O)C1OC(Oc2cc(O)c3c(=O)cc(-c4ccc(O)cc4)oc3c2)C(O)C(O)C1O (stereo not given)	> 100	> 100	> 100		> 100	> 100	> 100	> 100	> 100	> 100	> 100	> 100	> 100		> 100
OCC1OC(n2cnc3c2NC=NC[C@H]3O)C(O)C1O (stereo not given in full)	> 450	> 450	> 450		> 450	> 450	> 450	> 450	> 450	> 450	> 450	> 450	> 450		> 450
O=c1cc(-c2ccccc2)[nH]c2cc3c(cc12)OCO3	12.2	> 67.2	> 78.8	> 100	> 100	84.9	> 100	> 28.6	> 100	18.8	> 100			> 100	
O=C1C(Cl)C(c2ccccc2)N1n1cnc2ccccc2c1=O (stereo not given)	> 100	> 100	> 100	> 100	> 100	> 100	> 100	> 100	> 100		> 100	> 100			
